Read-outs that look alike come from different tables or passages of the source.
How the values were obtained:
[1] = system: DU145 prostate cancer cells; assay: MTS cell viability assay, DU145 prostate cancer cells; assay type: cell-based, human; conditions: quadruplicate, read-out: IC50 values against cancer cells, DU145 prostate
A2058 melanoma cells = assay: MTS cell viability assay, A2058 melanoma cells; assay type: cell-based, human; conditions: quadruplicate, read-out: IC50 values against cancer cells, A2058 melanoma
Protocol: (§1) FIGS. 2A-2G. Effects of 5BIODs on viabilities of human cancer cells; MTS assays were performed for cell viability; human A549 non-small cell lung cancer (FIG. 2A), MDA-MB-231 and MDA-MB-468 breast cancer (FIG. 2B), A2058 melanoma (FIG. 2C), DU145 prostate cancer (FIG. 2D), SKOV3 ovarian cancer (FIG. 2E), T315I Abl mutant KCL-22 CML (FIG. 2F) and MIA-PaCa2 pancreatic cancer (FIG. 2G) cells were seeded in 96-well plates (5000/well for solid tumor cell lines and 10000 cells/well for CML cell line), incubated overnight at 37° C. in 5% (v/v) CO2 and exposed to 5BIODs at 1 μM or 10 μM concentration for 48 h; DMSO was used as the vehicle control; cell viability was determined by tetrazolium conversion to its formazan dye and absorbance was measured at 490 nm using an automated ELISA plate reader; each experiment was performed in quadruplicate. Histogram ordering: FIG. 2B depicts MDA-MB-231 (black) and MDA-MB-468 (gray), in order left to right; FIG. 2C: 1 μM (gray); 10 μM (black), in order left to right; FIG. 2D: 1 μM (gray); 10 μM (black), in order left to right;

[2] = system: MIA-PaCa2 pancreatic cancer cells; assay: MTS cell viability assay, MIA-PaCa2 pancreatic cancer cells; assay type: cell-based; conditions: Homo sapiens, 48 h exposure, quadruplicate, read-out: IC50 values against cancer cells, PaCa2 pancreatic
Protocol: as §1

[3] = system: SKOV3 ovarian cancer cells; assay: MTS cell viability assay, SKOV3 ovarian cancer cells; assay type: cell-based, human; conditions: for IC50: Homo sapiens, SK-OV-3, MTS cell viability, 48 h exposure, quadruplicate, read-out: IC50 values against cancer cells, SKOV3 ovarian; for effect on viabilities of SKOV3 ovarian cancer cells: MTS assay, FIG. 3 legend, result in words
[4] = system: MDA-MB-231 breast cancer cells; assay: MTS cell viability assay, MDA-MB-231 breast cancer cells; assay type: cell-based; conditions: Homo sapiens, 48 h exposure, quadruplicate, read-out: IC50 values against cancer cells, MDA-MB-231 breast
Protocol: as §1

[5] = system: A549 non-small cell lung cancer cells; assay: MTS cell viability assay, A549 lung cancer cells; assay type: cell-based; conditions: Homo sapiens, 48 h exposure, quadruplicate, read-out: IC50 values against cancer cells, A549 lung
Protocol: as §1

ABL1 = ABL1 (Homo sapiens, UniProt P00519); assay: In vitro kinase assay with recombinant protein (33P-ATP), ABL1; assay type: biochemical; conditions: 120 min at room temperature, read-out: IC50 against kinase activity in vitro, ABL1
Protocol: (§2) The kinase assays were performed with recombinant proteins. Briefly, proteins, freshly prepared substrates and ^33P-ATP (specific activity 0.01 μCi/μl final) were mixed in reaction buffer (20 mM HEPES pH 7.5, 10 mM MgCl2, 1 mM EGTA, 0.02% Brij35, 0.02 mg/ml BSA, 0.1 mM Na3VO4, 2 mM DTT) in the presence of DMSO as control or 5BIODs. The mixtures were reacted for 120 min at room temperature. Samples were transferred onto P81 ion exchange paper and filters were extensively washed with 0.75% phosphoric acid. The radioactivities were monitored.

AuroraA = target: T1, AuroraA (Homo sapiens, UniProt O14965); assay: In vitro kinase assay with recombinant protein (33P-ATP), AuroraA; assay type: biochemical; conditions: 120 min at room temperature, read-out: IC50 against kinase activity in vitro, AuroraA
T1 sequence (O14965 1-403): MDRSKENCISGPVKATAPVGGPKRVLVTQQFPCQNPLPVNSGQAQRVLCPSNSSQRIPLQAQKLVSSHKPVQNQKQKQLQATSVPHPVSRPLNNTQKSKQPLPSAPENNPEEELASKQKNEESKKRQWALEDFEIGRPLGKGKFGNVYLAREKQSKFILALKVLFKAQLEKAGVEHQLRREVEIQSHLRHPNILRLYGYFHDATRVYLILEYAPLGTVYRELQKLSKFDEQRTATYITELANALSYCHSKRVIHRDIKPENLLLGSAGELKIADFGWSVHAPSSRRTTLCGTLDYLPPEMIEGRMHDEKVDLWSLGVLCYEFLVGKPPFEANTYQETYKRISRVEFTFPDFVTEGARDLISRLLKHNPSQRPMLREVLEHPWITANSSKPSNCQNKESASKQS
Protocol: as §2

c-Src = c-Src (Homo sapiens, UniProt P12931); assay: In vitro kinase assay with recombinant protein (33P-ATP), c-Src; assay type: biochemical; conditions: 120 min at room temperature, read-out: IC50 against kinase activity in vitro, c-Src
Chain of c-Src (P12931 whole entry): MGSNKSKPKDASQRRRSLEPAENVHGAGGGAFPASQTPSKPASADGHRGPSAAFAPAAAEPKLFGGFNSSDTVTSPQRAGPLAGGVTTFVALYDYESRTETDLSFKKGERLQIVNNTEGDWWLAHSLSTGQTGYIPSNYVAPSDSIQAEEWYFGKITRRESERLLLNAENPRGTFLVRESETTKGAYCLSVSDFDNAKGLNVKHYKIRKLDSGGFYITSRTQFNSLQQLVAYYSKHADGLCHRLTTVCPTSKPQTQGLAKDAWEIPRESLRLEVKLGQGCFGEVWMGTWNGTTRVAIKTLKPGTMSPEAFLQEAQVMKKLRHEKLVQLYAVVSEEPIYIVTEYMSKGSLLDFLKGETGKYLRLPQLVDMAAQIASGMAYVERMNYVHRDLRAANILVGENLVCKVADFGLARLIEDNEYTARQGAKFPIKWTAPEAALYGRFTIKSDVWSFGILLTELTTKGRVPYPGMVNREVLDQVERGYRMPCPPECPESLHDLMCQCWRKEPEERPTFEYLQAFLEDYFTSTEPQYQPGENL
Protocol: as §2

JAK2 = JAK2 (Homo sapiens, UniProt O60674); assay: In vitro kinase assay with recombinant protein (33P-ATP), JAK2; assay type: biochemical; conditions: 120 min at room temperature, read-out: IC50 against kinase activity in vitro, JAK2
Chain of JAK2 (O60674 whole entry): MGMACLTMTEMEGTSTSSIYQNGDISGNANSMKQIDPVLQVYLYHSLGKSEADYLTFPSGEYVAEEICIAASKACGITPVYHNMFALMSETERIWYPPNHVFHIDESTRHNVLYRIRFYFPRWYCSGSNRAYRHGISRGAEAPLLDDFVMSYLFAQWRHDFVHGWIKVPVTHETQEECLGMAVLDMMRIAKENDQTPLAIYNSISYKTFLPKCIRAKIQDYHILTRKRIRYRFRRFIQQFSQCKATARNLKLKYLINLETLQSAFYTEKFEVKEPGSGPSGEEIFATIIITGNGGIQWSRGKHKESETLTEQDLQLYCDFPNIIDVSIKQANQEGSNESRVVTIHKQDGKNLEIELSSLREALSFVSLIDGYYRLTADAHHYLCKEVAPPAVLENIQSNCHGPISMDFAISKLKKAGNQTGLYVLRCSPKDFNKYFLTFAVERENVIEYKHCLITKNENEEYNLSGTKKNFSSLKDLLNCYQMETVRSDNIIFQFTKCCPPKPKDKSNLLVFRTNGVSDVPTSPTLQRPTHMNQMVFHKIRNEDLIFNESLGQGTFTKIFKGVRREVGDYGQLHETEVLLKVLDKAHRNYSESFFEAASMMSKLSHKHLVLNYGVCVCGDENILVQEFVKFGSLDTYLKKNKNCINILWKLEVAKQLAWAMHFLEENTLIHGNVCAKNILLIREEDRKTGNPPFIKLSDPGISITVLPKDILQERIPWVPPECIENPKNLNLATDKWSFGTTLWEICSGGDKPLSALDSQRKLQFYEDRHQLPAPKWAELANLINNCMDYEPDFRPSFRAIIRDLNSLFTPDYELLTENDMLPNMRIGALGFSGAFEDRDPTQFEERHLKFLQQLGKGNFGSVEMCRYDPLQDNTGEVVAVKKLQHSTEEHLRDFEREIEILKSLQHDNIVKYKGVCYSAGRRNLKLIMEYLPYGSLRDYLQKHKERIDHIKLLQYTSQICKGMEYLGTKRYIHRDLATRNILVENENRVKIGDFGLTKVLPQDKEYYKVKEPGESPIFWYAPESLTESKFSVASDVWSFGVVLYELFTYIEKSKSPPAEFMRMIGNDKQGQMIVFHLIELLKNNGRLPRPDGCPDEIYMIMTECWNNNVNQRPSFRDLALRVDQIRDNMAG
Protocol: as §2

[6] = system: T315I Abl mutant KCL-22 CML cells; assay: MTS cell viability assay, T315I Abl mutant KCL-22 CML cells; assay type: cell-based; conditions: Homo sapiens, 48 h exposure, quadruplicate, read-out: IC50 values against cancer cells, T315l Alb mutant KCL-22 CML
Protocol: as §1

ABL1 (T315I) = ABL1 (T315I) (Homo sapiens, UniProt P00519, T315I); assay: In vitro kinase assay with recombinant protein (33P-ATP), ABL1 (T315I); assay type: biochemical; conditions: 120 min at room temperature, read-out: IC50 against kinase activity in vitro, ABL1 (T315I)
Protocol: as §2

TYK2 = TYK2 (Homo sapiens, UniProt P29597); assay: In vitro kinase assay with recombinant protein (33P-ATP), TYK2; assay type: biochemical; conditions: 120 min at room temperature, read-out: IC50 against kinase activity in vitro, TYK2
Chain of TYK2 (P29597 whole entry): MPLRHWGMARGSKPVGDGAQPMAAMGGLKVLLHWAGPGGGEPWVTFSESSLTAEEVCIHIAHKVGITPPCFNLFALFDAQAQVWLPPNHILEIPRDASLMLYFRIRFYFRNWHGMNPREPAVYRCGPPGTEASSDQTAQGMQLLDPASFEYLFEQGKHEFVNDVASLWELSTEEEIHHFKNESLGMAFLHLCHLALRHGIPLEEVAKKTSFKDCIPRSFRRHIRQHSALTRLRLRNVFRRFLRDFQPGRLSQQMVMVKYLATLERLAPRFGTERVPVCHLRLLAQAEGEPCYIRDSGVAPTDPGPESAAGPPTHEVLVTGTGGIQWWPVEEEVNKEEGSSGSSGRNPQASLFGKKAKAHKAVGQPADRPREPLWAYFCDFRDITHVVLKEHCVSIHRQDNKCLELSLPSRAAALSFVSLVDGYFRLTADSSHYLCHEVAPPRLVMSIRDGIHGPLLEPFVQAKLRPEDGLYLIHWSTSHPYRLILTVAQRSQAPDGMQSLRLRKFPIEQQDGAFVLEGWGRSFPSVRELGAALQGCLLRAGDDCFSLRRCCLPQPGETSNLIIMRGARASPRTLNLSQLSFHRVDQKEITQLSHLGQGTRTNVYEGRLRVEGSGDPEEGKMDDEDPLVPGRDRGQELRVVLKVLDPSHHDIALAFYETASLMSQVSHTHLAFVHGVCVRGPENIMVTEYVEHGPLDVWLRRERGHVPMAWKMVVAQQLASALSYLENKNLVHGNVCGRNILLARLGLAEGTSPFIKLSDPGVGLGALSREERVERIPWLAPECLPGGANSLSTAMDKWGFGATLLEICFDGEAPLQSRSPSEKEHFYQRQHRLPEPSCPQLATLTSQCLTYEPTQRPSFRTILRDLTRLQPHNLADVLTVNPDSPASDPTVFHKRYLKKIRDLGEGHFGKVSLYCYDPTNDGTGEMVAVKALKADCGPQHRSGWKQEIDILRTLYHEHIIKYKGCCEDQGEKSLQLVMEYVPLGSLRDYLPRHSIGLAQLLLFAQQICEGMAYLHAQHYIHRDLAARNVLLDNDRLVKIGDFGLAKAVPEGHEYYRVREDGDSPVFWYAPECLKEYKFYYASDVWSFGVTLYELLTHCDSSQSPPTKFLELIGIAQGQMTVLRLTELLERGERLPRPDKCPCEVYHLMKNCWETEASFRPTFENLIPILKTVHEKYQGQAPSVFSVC
Protocol: as §2

[7] = Homo sapiens, DU-145, 48 h exposure
[8] = Homo sapiens, A2058, 48 h exposure
[9] = Homo sapiens, DU-145, 48 h, 48 h exposure
[10] = Homo sapiens, A2058, 48 h, 48 h exposure

Row | Structure (SMILES) | IC50 [1, 7] [µM] | IC50 (A2058 melanoma cells; [8]) [µM] | IC50 [2] [µM] | IC50 [3] [µM] | IC50 [4] [µM] | IC50 [5] [µM] | IC50 (ABL1) [µM] | IC50 (AuroraA) [µM] | IC50 (c-Src) [µM] | IC50 (JAK2) [µM] | IC50 (ABL1 (T315I)) [µM] | IC50 (TYK2) [µM] | IC50 ([1]; 48 h exposure) [µM] | IC50 (A2058 melanoma cells; 48 h exposure) [µM] | IC50 [1, 9] [µM] | IC50 (A2058 melanoma cells; [10]) [µM] | effect on viabilities of SKOV3 ovarian cancer cells [3] | IC50 [6] [µM]
1 | O=C1Nc2ccc(Br)cc2/C1=C1/Nc2ccccc2/C1=N\OCCN1CCN(CCO)CC1 [Compound 1282] | 0.91 |  | 1 | 0.77 | 0.78 | 0.5 |  |  |  |  |  |  |  |  |  |  |  | 
2 | O=C1Nc2ccc(Br)cc2/C1=C1/Nc2ccccc2/C1=N\OCCN1CCCC1 [Compound 1280] | 0.66 | 1.6 | 0.96 | 1.34 | 0.66 | 0.84 |  |  |  |  |  |  |  |  |  |  |  | 0.86
3 | CN1CCN(CCO/N=C2/C(=C3/C(=O)Nc4ccc(Br)cc43)Nc3ccccc32)CC1 [Compound 1284] |  |  |  | 1.36 | 1 | 0.44 |  |  |  |  |  |  |  |  |  |  |  | 
4 | CN(CCO/N=C1/C(=C2/C(=O)Nc3ccc(Br)cc32)Nc2ccccc21)CC(O)CO (centres unmarked) [Compound 1279] |  |  |  |  |  |  | 1.44 | 0.301 | 0.0696 | 0.41 | 5.55 | 0.0627 | 2 | 2.2 |  |  |  | 
5 | CCN(CC)CCON=C1C(=C2C(=O)Nc3ccc(Br)cc32)Nc2ccccc21 [Compound 1277] |  |  |  |  |  |  | 4.77 | 3.31 | 0.0954 | 1.25 | > 10 | 0.146 |  |  | 0.77 | 1.9 |  | 
6 | O=C1Nc2ccc(Br)cc2C1=C1Nc2ccccc2C1=NOCCN1CCCC1 [Compound 1281] | 0.66 | 1.8 | 0.44 | 0.75 | 0.37 | 0.4 | 2.5 | 2.05 | 0.0197 | 0.264 | 7.08 | 0.021 |  |  |  |  |  | 0.58
7 | CCN(CC)CCO/N=C1/C(=C2/C(=O)Nc3ccc(Br)cc32)Nc2ccccc21 [Compound 1276] |  |  | 1.2 | 0.41 | 0.3 | 0.47 | 1.02 | 0.954 | 0.0343 | 0.526 | 6.58 | 0.0316 |  |  | 0.42 | 0.36 | reduce viabilities | 0.3
8 | CN(CCO/N=C1/C(=C2/C(=O)Nc3ccc(Br)cc32)Nc2ccccc21)CC(O)CO (centres unmarked) [Compound 1278] |  |  | 2.5 | 0.75 | 0.71 | 0.6 | 0.392 | 0.122 | 0.0121 | 0.104 | 1.55 | 0.027 | 0.78 |  |  | 1.7 |  | 0.5

Further lines, with some results ahead:

Row | IC50 [1, 7] [µM] | IC50 (A2058 melanoma cells; [8]) [µM] | IC50 [2] [µM] | IC50 [3] [µM] | IC50 [4] [µM] | IC50 [5] [µM] | IC50 (ABL1) [µM] | IC50 (AuroraA) [µM] | IC50 (c-Src) [µM] | IC50 (JAK2) [µM] | IC50 (ABL1 (T315I)) [µM] | IC50 (TYK2) [µM] | IC50 ([1]; 48 h exposure) [µM] | IC50 (A2058 melanoma cells; 48 h exposure) [µM] | IC50 [1, 9] [µM] | IC50 (A2058 melanoma cells; [10]) [µM] | Structure (SMILES) | effect on viabilities of SKOV3 ovarian cancer cells [3] | IC50 [6] [µM]
9 | 0.32 | 0.88 |  |  |  |  |  |  |  |  |  |  |  |  |  |  | CN(C)CCO/N=C1/C(=C2/C(=O)Nc3ccc(Br)cc32)Nc2ccccc21 [Compound 1501] |  | 
10 |  |  |  | 1.84 | 1.36 | 0.93 |  |  |  |  |  |  |  |  |  |  | O=C1Nc2ccc(Br)cc2/C1=C1/Nc2ccccc2/C1=N\OCCN1CCN(CCOCCO)CC1 [Compound 1286] |  | 
11 | 0.69 | 1.1 | 0.46 | 0.46 | 0.4 | 0.38 | 0.0714 | 0.143 | 0.0037 | 0.0476 | 0.214 | 0.0201 |  |  |  |  | O=C1Nc2ccc(Br)cc2C1=C1Nc2ccccc2C1=NOCCN1CCNCC1 [Compound 1289] | reduce viabilities | 0.6
12 | 1.5 | 1.7 |  |  |  |  |  |  |  |  |  |  |  |  |  |  | CCCN(CCC)CCO/N=C1/C(=C2/C(=O)Nc3ccc(Br)cc32)Nc2ccccc21 [Compound 1502] |  | 

Source: US11306072B2, “5-bromo-indirubins” (City of Hope, priority 2013, dated 2022)
